Laboratory results taken from ChEMBL document CHEMBL4477225, “Development of a cell viability assay to assess drug metabolite structure-toxicity relationships” (Bioorg Med Chem Lett, 2016).

How the values were obtained:
Details in all cases: recombinant enzyme
[1] = molecular target: Cytochrome P450 3A4 (Homo sapiens, UniProt P08684); assay: (§1) Drug activation in human Hep3B cells assessed as human CYP3A4-mediated drug metabolism-induced cytotoxicity measured as decrease in cell viability at 300 uM pre-incubated with BSO for 18 hrs followed by incubation with compound for 3 hrs in presence of NADPH measured after 24 hrs in absence of compound, CYP3A4 and NADPH by cell titer-glo luminescence assay relative to BSO alone
Sequence of Cytochrome P450 3A4 (P08684 whole entry): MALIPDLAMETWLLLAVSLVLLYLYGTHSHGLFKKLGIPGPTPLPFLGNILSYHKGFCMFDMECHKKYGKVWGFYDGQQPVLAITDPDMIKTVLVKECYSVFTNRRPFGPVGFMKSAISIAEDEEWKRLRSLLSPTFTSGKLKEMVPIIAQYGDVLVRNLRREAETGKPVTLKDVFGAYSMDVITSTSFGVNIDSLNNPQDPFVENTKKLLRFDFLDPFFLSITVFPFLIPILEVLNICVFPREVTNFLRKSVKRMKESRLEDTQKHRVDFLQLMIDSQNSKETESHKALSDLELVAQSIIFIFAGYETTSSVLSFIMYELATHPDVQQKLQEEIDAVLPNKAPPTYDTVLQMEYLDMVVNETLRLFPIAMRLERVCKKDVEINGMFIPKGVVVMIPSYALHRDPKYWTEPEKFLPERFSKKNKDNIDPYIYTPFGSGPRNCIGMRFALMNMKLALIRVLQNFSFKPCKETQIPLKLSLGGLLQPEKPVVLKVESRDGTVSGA

[2] = molecular target: Cytochrome P450 2D6 (Homo sapiens, UniProt P10635); assay: as §1, with “CYP2D6-mediated” for “CYP3A4-mediated”
Sequence of Cytochrome P450 2D6 (P10635 whole entry): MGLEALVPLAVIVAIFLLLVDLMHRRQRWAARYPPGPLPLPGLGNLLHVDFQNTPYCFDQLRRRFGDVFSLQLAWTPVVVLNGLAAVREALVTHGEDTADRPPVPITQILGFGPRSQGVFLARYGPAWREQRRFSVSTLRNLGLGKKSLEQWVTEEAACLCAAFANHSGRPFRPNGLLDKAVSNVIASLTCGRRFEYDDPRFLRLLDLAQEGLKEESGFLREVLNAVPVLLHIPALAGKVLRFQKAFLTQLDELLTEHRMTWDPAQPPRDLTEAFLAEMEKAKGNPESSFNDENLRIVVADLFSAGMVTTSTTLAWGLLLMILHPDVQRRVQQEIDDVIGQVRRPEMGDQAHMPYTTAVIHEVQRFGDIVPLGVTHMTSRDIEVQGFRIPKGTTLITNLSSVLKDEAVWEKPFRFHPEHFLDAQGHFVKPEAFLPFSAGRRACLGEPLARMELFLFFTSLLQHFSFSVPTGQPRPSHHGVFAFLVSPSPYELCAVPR

[3] = molecular target: Cytochrome P450 2C9 (Homo sapiens, UniProt P11712); assay: as §1, with “CYP2C9-mediated” for “CYP3A4-mediated”
Sequence of Cytochrome P450 2C9 (P11712 whole entry): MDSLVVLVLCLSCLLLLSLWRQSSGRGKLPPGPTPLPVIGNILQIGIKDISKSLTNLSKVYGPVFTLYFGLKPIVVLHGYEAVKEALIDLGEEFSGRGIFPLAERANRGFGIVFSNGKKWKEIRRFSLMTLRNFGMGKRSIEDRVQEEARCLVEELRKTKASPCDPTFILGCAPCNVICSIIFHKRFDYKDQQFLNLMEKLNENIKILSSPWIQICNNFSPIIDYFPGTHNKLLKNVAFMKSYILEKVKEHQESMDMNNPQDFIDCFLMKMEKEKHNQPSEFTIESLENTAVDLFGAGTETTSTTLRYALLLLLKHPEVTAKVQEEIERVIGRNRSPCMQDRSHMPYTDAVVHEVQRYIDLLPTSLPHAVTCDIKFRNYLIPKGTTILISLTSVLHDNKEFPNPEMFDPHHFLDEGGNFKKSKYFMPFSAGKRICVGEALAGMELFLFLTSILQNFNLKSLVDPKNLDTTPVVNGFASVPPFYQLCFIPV

SMILES | FC [1] | FC [2] | FC [3]
CCCCCCCCCCCCOS(=O)(=O)O.CC[C@H]1OC(=O)[C@H](C)[C@@H](O[C@H]2C[C@@](C)(OC)[C@@H](O)[C@H](C)O2)[C@H](C)[C@@H](O[C@@H]2O[C@H](C)C[C@H](N(C)C)[C@H]2O)[C@](C)(O)C[C@@H](C)C(=O)[C@H](C)[C@@H](O)[C@]1(C)O | 1 | 1 | –
O=C(O)COc1ccc(C(=O)c2cccs2)c(Cl)c1Cl | 1 | 1 | 1
Nc1nc(NC2CC2)c2ncn([C@H]3C=C[C@@H](CO)C3)c2n1 [ABACAVIR] | 1 | 1 | 1
Nc1nc2c(ncn2COCCO)c(=O)[nH]1 [ACYCLOVIR] | 1 | 1 | 1
CC(C)(C)NCC(O)c1ccc(O)c(CO)c1 (centres undefined) [ALBUTEROL] | 1 | 1 | 1
Oc1ncnc2[nH]ncc12 [ALLOPURINOL] | 1 | 1 | 1
COC(c1ccccc1)(c1ccccc1)[C@H](Oc1nc(C)cc(C)n1)C(=O)O [AMBRISENTAN] | 1 | 1 | 1
O=C(O)CCCCCCNC1c2ccccc2CCc2ccccc21 [AMINEPTINE] | 1 | 1 | 1
Nc1ccc(C(=O)O)c(O)c1 [AMINOSALICYLIC ACID] | 1 | 1 | 1
CC1(C)S[C@@H]2[C@H](NC(=O)[C@H](N)c3ccc(O)cc3)C(=O)N2[C@H]1C(=O)O [AMOXICILLIN] | 1 | 1 | 1
CC(=O)Oc1ccccc1C(=O)O [ASPIRIN] | 1 | 1 | 1
CC(C(=O)O)c1ccc2oc(-c3ccc(Cl)cc3)nc2c1 (centres undefined) [BENOXAPROFEN] | 1 | 1 | 1
C[N+](C)(C)CC(=O)O [BETAINE] | 1 | 1 | 1
COc1ccccc1Oc1c(NS(=O)(=O)c2ccc(C(C)(C)C)cc2)nc(-c2ncccn2)nc1OCCO [BOSENTAN] | 1 | 1 | 1
Nc1c(CC(=O)O)cccc1C(=O)c1ccc(Br)cc1 [BROMFENAC] | 1 | 1 | 1
CC(NC(C)(C)C)C(=O)c1cccc(Cl)c1 (centres undefined) [BUPROPION] | 1 | 1 | 1
CS(=O)(=O)OCCCCOS(C)(=O)=O [BUSULFAN] | 1 | 1 | 1
C[C@H](CS)C(=O)N1CCC[C@H]1C(=O)O [CAPTOPRIL] | 1 | 1 | 1
NC(=O)N1c2ccccc2C=Cc2ccccc21 [CARBAMAZEPINE] | 1 | 1 | 1
C[C@@](Cc1ccc(O)c(O)c1)(NN)C(=O)O [CARBIDOPA ANHYDROUS] | 0.6 | 0.6 | 0.6
CCCNC(=O)NS(=O)(=O)c1ccc(Cl)cc1 [CHLORPROPAMIDE] | 1 | 1 | 1

SMILES | FC [1] | FC [2] | FC [3]
O=C(O)c1cc(-c2ccccc2)nc2ccccc12 [CINCHOPHEN] | 1 | 1 | 1
Clc1cccc(Cl)c1N=C1NCCN1 [CLONIDINE] | 1 | 1 | 1
O=P1(N(CCCl)CCCl)NCCCO1 (centres undefined) [CYCLOPHOSPHAMIDE ANHYDROUS] | 1 | 1 | 1
CN(C)/N=N/c1[nH]cnc1C(N)=O [DACARBAZINE] | 1 | 1 | –
CC(=O)N(O)CCCCCNC(=O)CCC(=O)N(O)CCCCCNC(=O)CCC(=O)N(O)CCCCCN [DEFEROXAMINE] | 1 | 1 | 1
O=c1[nH]cnc2c1ncn2[C@H]1CC[C@@H](CO)O1 [DIDANOSINE] | 1 | 1 | 1
C[C@H]1O[C@@H](O[C@H]2[C@@H](O)C[C@H](O[C@H]3[C@@H](O)C[C@H](O[C@H]4CC[C@@]5(C)[C@H](CC[C@@H]6[C@@H]5C[C@@H](O)[C@]5(C)[C@@H](C7=CC(=O)OC7)CC[C@]65O)C4)O[C@@H]3C)O[C@@H]2C)C[C@H](O)[C@@H]1O [DIGOXIN] | 1 | 1 | 1
COC(=O)CCc1ccc(OCC(O)CNC(C)C)cc1 (centres undefined) [ESMOLOL] | 1 | 1 | 1
CC[C@@H](CO)NCCN[C@@H](CC)CO [ETHAMBUTOL] | 1 | 1 | 1
CCc1cccc2c3c([nH]c12)C(CC)(CC(=O)O)OCC3 (centres undefined) [ETODOLAC] | 1 | 1 | 1
CC(C(=O)O)c1ccc(-c2ccccc2)c(F)c1 (centres undefined) [FLURBIPROFEN] | 1 | 1 | 1
Nc1nc2ncc(CNc3ccc(C(=O)N[C@@H](CCC(=O)O)C(=O)O)cc3)nc2c(=O)[nH]1 [FOLIC ACID] | 0.6 | 0.6 | 0.6
Nc1nc(O)c2ncn(COC(CO)CO)c2n1 [GANCICLOVIR] | 1 | 1 | 1
COC1=CC(=O)C[C@@H](C)[C@]12Oc1c(Cl)c(OC)cc(OC)c1C2=O [GRISEOFULVIN] | 1 | 1 | 1
O=C(CCCN1CCC(O)(c2ccc(Cl)cc2)CC1)c1ccc(F)cc1 [HALOPERIDOL] | 1 | 1 | 1
NNC(=O)c1ccncc1 [ISONIAZID] | 1 | 1 | 1
NC[C@H]1O[C@H](O[C@H]2[C@H](O)[C@@H](O[C@H]3O[C@H](CO)[C@@H](O)[C@H](N)[C@H]3O)[C@H](N)C[C@@H]2N)[C@H](O)[C@@H](O)[C@@H]1O [KANAMYCIN] | 1 | 1 | 1
Nc1ccn([C@@H]2CS[C@H](CO)O2)c(=O)n1 [LAMIVUDINE] | 1 | 1 | 1
Cc1oncc1C(=O)Nc1ccc(C(F)(F)F)cc1 [LEFLUNOMIDE] | 1 | 1 | –
Sc1ncnc2nc[nH]c12 [MERCAPTOPURINE ANHYDROUS] | 1 | 1 | –
CC(C)NCC(O)c1cc(O)cc(O)c1 (centres undefined) [METAPROTERENOL] | 1 | 1 | 1

SMILES | FC [1] | FC [2] | FC [3]
CN(Cc1cnc2nc(N)nc(N)c2n1)c1ccc(C(=O)N[C@@H](CCC(=O)O)C(=O)O)cc1 [METHOTREXATE] | 1 | 1 | –
COCCc1ccc(OCC(O)CNC(C)C)cc1 (centres undefined) [METOPROLOL] | 1 | 1 | 1
Cc1cccc(C)c1OCC(C)N (centres undefined) [MEXILETINE] | 1 | 1 | 1
CN(C)c1ccc(O)c2c1C[C@H]1C[C@H]3[C@H](N(C)C)C(O)=C(C(N)=O)C(=O)[C@@]3(O)C(O)=C1C2=O [MINOCYCLINE] | 1 | 1 | 1
Cc1ccnc2c1NC(=O)c1cccnc1N2C1CC1 [NEVIRAPINE] | 1 | 1 | 1
O=C(O)c1cccnc1 [NIACIN] | 1 | 1 | –
CS(=O)(=O)Nc1ccc([N+](=O)[O-])cc1Oc1ccccc1 [NIMESULIDE] | – | – | 1
CNC(=C[N+](=O)[O-])NCCSCc1csc(CN(C)C)n1 [NIZATIDINE] | 1 | 1 | 1
CN1Cc2c(N)cccc2C(c2ccccc2)C1 (centres undefined) [NOMIFENSINE] | 0.3 | 0.3 | 0.3
CCCCCCCCCCC[C@@H](C[C@@H]1OC(=O)[C@H]1CCCCCC)OC(=O)[C@H](CC(C)C)NC=O [ORLISTAT] | 1 | 1 | 1
CCOC(=O)C1=C[C@@H](OC(CC)CC)[C@H](NC(C)=O)[C@@H](N)C1 [OSELTAMIVIR] | 1 | 1 | 1
CCc1ccc(CCOc2ccc(CC3SC(=O)NC3=O)cc2)nc1 (centres undefined) [PIOGLITAZONE] | 1 | 1 | 1
CC[C@H](C)C(=O)O[C@H]1C[C@H](O)C=C2C=C[C@H](C)[C@H](CC[C@@H](O)C[C@@H](O)CC(=O)O)[C@H]21 [PRAVASTATIN] | 1 | 1 | 1
CCC1(c2ccccc2)C(=O)NCNC1=O [PRIMIDONE] | 1 | 1 | 1
NC(=O)c1cnccn1 [PYRAZINAMIDE] | 1 | 1 | 1
NC(=O)c1ncn([C@@H]2O[C@H](CO)[C@@H](O)[C@H]2O)n1 [RIBAVIRIN] | 1 | 1 | –
Cc1cn([C@H]2C=C[C@@H](CO)O2)c(=O)[nH]c1=O [STAVUDINE] | 1 | 1 | 1
[H]/N=C(/N)N[C@H]1[C@H](O)[C@@H](O)[C@H](O[C@@H]2O[C@@H](C)[C@](O)(C=O)[C@H]2O[C@@H]2O[C@@H](CO)[C@H](O)[C@@H](O)[C@@H]2NC)[C@@H](N/C(N)=N\[H])[C@@H]1O [STREPTOMYCIN] | 1 | 1 | 1
CCOc1ccccc1OCCN[C@H](C)Cc1ccc(OC)c(S(N)(=O)=O)c1 [TAMSULOSIN] | 1 | – | 1
CCCCNC(=O)NS(=O)(=O)c1ccc(C)cc1 [TOLBUTAMIDE] | – | 1 | –
